Data from ChEMBL document CHEMBL4007485, “Examining the structure-activity relationship of benzopyran-based inhibitors of the hypoxia inducible factor-1 pathway” (Bioorg Med Chem Lett, 2017).

System: not listed separately
Test: Inhibition of HIF-1 pathway in human LN229 cells harboring HRE-AP assessed sa reduction in VEGF transcription pretreated for 1 hr under normoxic condition followed by 24 hrs incubation under hypoxic condition by HRE-[…] reporter gene assay
Format: cell-based
Settings: LN-229

SMILES	IC50
COc1ccc(S(=O)(=O)N(Cc2ccc3c(c2)C=CC(C)(C)O3)c2ccccc2)cc1OC	0.59 µM
COc1ccc(S(=O)(=O)N(Cc2ccc([N+](=O)[O-])cc2)C2CCC2)cc1OC	> 5 µM
COc1ccc(S(=O)(=O)N(Cc2ccccc2[N+](=O)[O-])C2CCC2)cc1OC	> 5 µM
CC1(C)C=Cc2cc(CN(c3ccccc3)S(=O)(=O)c3ccc(OC(F)(F)F)cc3)ccc2O1	> 5 µM
CCOc1ccc(S(=O)(=O)N(Cc2ccc3c(c2)C=CC(C)(C)O3)C2CCCC2)cc1	> 5 µM
COc1ccc(CCN(Cc2ccc3c(n2)C=CC(C)(C)O3)S(=O)(=O)c2ccc(OC)c(OC)c2)cc1OC	> 5 µM
CC1(C)C=Cc2cc(CN(C3CCC3)S(=O)(=O)c3ccc(Br)cc3)ccc2O1	> 5 µM
COc1ccc(S(=O)(=O)N(Cc2ccc3c(c2)OCO3)c2ccccc2)cc1OC	> 5 µM
COc1ccc(CN(C2CCC2)S(=O)(=O)c2ccc(OC)c(OC)c2)c(OC)c1	> 5 µM
COc1ccc(S(=O)(=O)N(Cc2ccc[nH]2)C2CCC2)cc1OC	> 5 µM
COc1ccc(S(=O)(=O)N(Cc2ccc3c(c2)CCC(C)(C)O3)CC2COC2)cc1OC	> 5 µM
CC1(C)C=Cc2cc(CN(c3ccccc3)S(=O)(=O)c3ccc(C#N)cc3)ccc2O1	> 5 µM
CC1(C)C=Cc2cc(CN(C3CCC3)S(=O)(=O)c3ccc(OC(F)(F)F)cc3)ccc2O1	> 5 µM
COc1ccc(S(=O)(=O)N(Cc2ccc3nonc3c2)c2ccccc2)cc1OC	> 5 µM
COc1ccc(S(=O)(=O)N(Cc2ccccc2)C2CCC2)cc1OC	> 5 µM
Cc1noc(C)c1S(=O)(=O)N(Cc1ccc2c(c1)C=CC(C)(C)O2)C1CCC1	> 5 µM
CC1(C)C=Cc2cc(CN(c3ccccc3)S(=O)(=O)c3ccc(F)c(F)c3)ccc2O1	> 5 µM

Continued by falling IC50, values first:

IC50	SMILES
4.6 µM	CC1(C)C=Cc2cc(CN(C3CCC3)S(=O)(=O)c3ccc(F)c(F)c3)ccc2O1
4.4 µM	CCOc1ccc(S(=O)(=O)N(Cc2ccc3c(c2)C=CC(C)(C)O3)C2CCC2)cc1
4 µM	COc1ccc(S(=O)(=O)N(Cc2ccc3c(c2)C=CC(C)(C)O3)CC2COC2)cc1OC
4 µM	CC1(C)C=Cc2nc(CN(C3CCC3)S(=O)(=O)c3ccc(OC(F)(F)F)cc3)ccc2O1
3.9 µM	COc1ccc(CN(C2CCC2)S(=O)(=O)c2ccc(OC)c(OC)c2)cc1
3.5 µM	COc1ccc(S(=O)(=O)N(Cc2ccc3c(c2)CCO3)C2CCC2)cc1OC
3.3 µM	COc1ccc(S(=O)(=O)N(Cc2cc3c(cc2C)OC(C)(C)C=C3)c2ccccc2)cc1OC
3.2 µM	COc1ccc(S(=O)(=O)N(Cc2cc(C)c3c(c2)C=CC(C)(C)O3)c2ccccc2)cc1OC
3.2 µM	COc1ccc(S(=O)(=O)N(Cc2ccc3c(c2)CCC(C)(C)O3)c2ccccc2)cc1
3.1 µM	COc1ccc(S(=O)(=O)N(Cc2cc3c(cc2Br)OC(C)(C)C=C3)c2ccccc2)cc1OC
3 µM	CC1(C)C=Cc2cc(CN(C3CCCC3)S(=O)(=O)c3ccc(CBr)cc3)ccc2O1
2.5 µM	CC1(C)C=Cc2nc(CN(C3CCC3)S(=O)(=O)c3ccc(CBr)cc3)ccc2O1
1.8 µM	COc1ccc(S(=O)(=O)N(Cc2cccc3c2OC(C)(C)C=C3)c2ccccc2)cc1OC
1.8 µM	COc1ccc(S(=O)(=O)N(Cc2ccc3c(n2)C=CC(C)(C)O3)C2CCC2)cc1
1.5 µM	COc1ccc(S(=O)(=O)N(Cc2ccc3c(c2)C=CC(C)(C)O3)C2CCCC2)c(OC)c1
1.3 µM	COc1ccc(S(=O)(=O)N(Cc2ccc3c(c2)OCO3)C2CCC2)cc1OC
1.2 µM	COc1ccc(S(=O)(=O)N(Cc2ccc3c(n2)CCC(C)(C)O3)C2CCC2)cc1
1 µM	COc1ccc(S(=O)(=O)N(Cc2ccc(CN3CCOCC3)cc2)C2CCC2)cc1OC
1 µM	COc1cccc(S(=O)(=O)N(Cc2ccc3c(c2)C=CC(C)(C)O3)c2ccccc2)c1
0.98 µM	COc1ccc(S(=O)(=O)N(Cc2ccc3c(c2)CCC(C)(C)O3)c2ccccc2)cc1OC
0.75 µM	COc1ccc(S(=O)(=O)N(Cc2ccc3c(c2)C=CC(C)(C)O3)C2CCC2)cc1OC
0.5 µM	COc1ccc(S(=O)(=O)N(Cc2ccc3c(c2)C=CC(C)(C)O3)C2CCCC2)cc1OC
0.39 µM	COc1ccc(S(=O)(=O)N(Cc2ccc3c(c2)CCC(C)(C)O3)C2CCC2)cc1OC
0.28 µM	COc1ccc(S(=O)(=O)N(Cc2ccc3c(n2)C=CC(C)(C)O3)C2CCC2)cc1OC
0.25 µM	COc1ccc(S(=O)(=O)N(Cc2ccc3c(n2)CCC(C)(C)O3)C2CCC2)cc1OC

System: not listed separately
Test: Inhibition of HIF-1 pathway in human LN229 cells harboring HRE-AP by alkaline phosphatase reporter gene assay
Format: cell-based
Settings: LN-229

SMILES	IC50
COc1ccc(S(=O)(=O)N(Cc2ccc3c(c2)C=CC(C)(C)O3)c2ccccc2)cc1OC	0.6 µM

System: LN-229
Test: Antitumor activity against human LN229 cells xenografted in nude mouse assessed as tumor growth inhibition at 60 mg/kg administered for 5 days in a week for 10 to 12 weeks relative to control
Format: functional
Settings: not given

SMILES	fold change (FC)
COc1ccc(S(=O)(=O)N(Cc2ccc3c(c2)C=CC(C)(C)O3)c2ccccc2)cc1OC	6
